Eight compounds from US11123355B2, “Antiviral benzyl-amine phosphodiamide compounds” (Merck Sharp & Dohme Corp., priority 2016, dated 2021) can be followed below.

As a reminder, the IC50 is the concentration needed to halve the response being measured.

For data set [1], the system named is HIV-1 (H9/IIB strain). In words: Multiple Round HIV-1 Infection Assay (Viking Assay) in MT4-GFP cells. As to conditions: inhibition of reproductive ratio R0. In kind it is cell-based. In outline:
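Inhibition of the reproductive ratio R0, derived from the rise in GFP-positive cells between ~48 h and ~72 h post-infection, was fitted by 4-parameter regression to give IC50. Cells infected at MOI ~0.01 were exposed to compound (typically 8.4 μM–0.42 nM final) in 10% or 50% normal human serum.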

Data set [2] is described as follows: Pharmacokinetic Studies in Dogs - In Vivo Dog PK. The arrangement: species or system beagle dogs. As to conditions: dog PBMCs at 24 h following a 10 mg/kg P.O. dose of the prodrug. As for the experimental part: Pharmacokinetic Studies in Dogs—In Vivo Dog PK
Prodrugs were administered to beagle dogs through intravenous (IV) and oral (P.O.) administrations in a non-crossover manner. The IV dose was prepared in 20% hydroxypropyl β-cyclodextrin (HPBCD) or polyethylene glycol 200:ethanol:water (70:10:20 v/v/v). The dose was administered via cephalic or saphenous vein. The P.O. dose was prepared in 10% polysorbate 80 (Tween 80) and was administered via gavage.
Blood samples were serially collected following dose administration for up to 48 hr and plasma was separated by centrifugation. The concentrations of prodrugs in dog plasma were determined by a LC-MS/MS assay following a protein precipitation step and addition of an appropriate internal standard (labetalol, imipramine or diclofenac). Quantification was done by determining peak area-ratios of the prodrugs and tenofovir to the internal standard. Additional blood sample(s) was collected following dose administration for up to 24 hr. […] The concentrations of tenofovir and/or its phosphate conjugate(s) in PBMCs were determined by an LC-MS/MS assay following a protein precipitation step and addition of an appropriate internal standard (labetalol, imipramine or diclofenac). Quantification was done by determining peak area-ratios of tenofovir and/or its phosphate conjugate(s) to the internal standard.
Pharmacokinetic parameters were obtained using non-compartmental methods (Watson®). The area under the plasma concentration-time curve (AUC0-t) was calculated from the first time point (0 min) up to the last time point with measurable drug concentration using the linear trapezoidal or linear/log-linear trapezoidal rule. The IV plasma clearance was calculated by dividing the dose by AUC0-inf. The terminal half-life of elimination was determined by unweighted linear regression analysis of the log-transformed data. […] The volume of distribution at steady state (Vdss) was obtained from the product of plasma clearance and mean residence time (determined by dividing the area under the first moment curve by the area under the curve). […]

Data set [3] in a line: Prodrug Stability Assay in Bio-Relevant Media (FaSSIF with Pancreatin). The format is in vitro ADME. Conditions: 0.5 mg/mL Pancreatin in FaSSIF, 37° C.; HPLC peak area of prodrug at 5 h divided by that at 0 h. As for the experimental part: Prodrug Stability Assay in Bio-Relevant Media
The following assay was employed to evaluate the stability of the prodrugs in simulated gastrointestinal tract conditions. Preparation of fasted state simulated intestinal fluid (FaSSIF) using Phares SIF Powder was carried out according to protocols from Phare Drug Delivery AG (Baselland, Switzerland). For sample preparation, 10 μL stock solutions (10 mM) of prodrug substance in DMSO was added to 990 μL of 0.5 mg/mL Pancreatin solution (Fisher CAS #8049-47-6) in FaSSIF. Two samples were prepared for each compound. If the sample was a clear solution, it was directly analyzed by HPLC. If the sample was not clear, the sample was diluted with 100% MeCN, maintained at 37° C. and observed 5 h later. If the sample was clear, HPLC analysis was directly performed. If the sample was still not clear, the sample was diluted with 100% ACN and assayed by HPLC. All the samples were vortexed for 3 min and observed before injection. For the diluted samples, the area is multiplied by a dilution factor when the data is analyzed. The analysis was carried out with an Agilent 1100 series HPLC with autosampler. The column was a Poroshell 120 EC-C18, 4.6×50 mm, 2.7 μm. The flow rate was 1.8 mL/min, and the injection volume was 5 or 10 μL. UV detection was in the range 210-400 nm. The mobile phase consisted of solvent A (water plus 10 mM tetrabutylammonium bromide) and solvent B (acetonitrile) with a gradient of: 90% solvent A at 0 min, changing to 95% solvent B over 6 min, maintaining for 1.5 min, then reverting to 90% solvent A over 1.6 min. The HPLC peak area of the prodrug at 5 h was divided by the HPLC peak area of the prodrug at 0 h, to generate the % claimed parent ratio, which is summarized in Table 2 for gastrointestinal (GI) Tract stability.

[4] abbreviates: MT4-GFP cells infected with HIV-1, 10% normal human serum, read-out: Viking, IC50 (10% NHS).
[5] abbreviates: MT4-GFP cells infected with HIV-1, 50% normal human serum, read-out: Viking, IC50 (50% NHS).

Like-named read-outs stand apart in the source and are kept apart here.

Regarding `CCCOC(=O)C(C)(C)NP(=O)(CO[C@H](C)Cn1cnc2c(N)ncnc21)N[C@@H](C)c1ccc(Cl)cc1` (stereo partly drawn) [Example 13A, propyl 2-(((R)-((((R)-1-(6-amino-9H-purin-9-yl)propan-2-yl)oxy)methyl)(((S)-1-(4-chlorophenyl)ethyl)amino)phosphoryl)ami-no)-2-methylpropanoate and propyl 2-(((S)-((((R)-1-(6-amino-9H-purin-9-yl)propan-2-yl)oxy)methyl)(((S)-1-(4-chlorophenyl)ethyl)amino)phosphoryl)ami-no)-2-methylpropanoate], the values for the IC50 in data set [1] (setting [4]) and in data set [1] (setting [5]) were 8.4 nM and 75 nM, respectively. Besides, the “In Vivo Dog PK (μM): TFV-DP concentrations in dog PBMCs” value (“In Vivo Dog PK (μM)” for short) in data set [2] is 15.9 µM. Besides, the “GI Tract stability (%)” value in data set [3] is 98.5%.

Turning to “isopropyl 2-(((R)-((((R)-1-(6-amino-9H- purin-9-yl)propan-2-yl)oxy)methyl)((2-(4- chlorophenyl)propan-2- yl)amino)phosphoryl)amino)-2- methylpropanoate and isopropyl 2-(((S)-((((R)-1-(6-amino-9H- purin-9-yl)propan-2-yl)oxy)methyl)((2-(4- chlorophenyl)propan-2- yl)amino)phosphoroyl)amino)-2- methylpropanoate [Example 36A]”, the IC50 in data set [1] (setting [4]) was 3.2 nM; in data set [1] (setting [5]), 37 nM. Moreover, the “GI Tract stability (%)” value in data set [3] came out at 20.2%.

On to `CCCOC(=O)C(C)(C)N[P@@](=O)(CO[C@H](C)Cn1cnc2c(N)ncnc21)N[C@H](c1ccc(OC(F)(F)F)cc1)C(F)(F)F` (single isomer, unassigned) [Example 27A], for which the IC50 in data set [1] (setting [4]) worked out at 1.4 nM; in data set [1] (setting [5]), 6.7 nM. Besides, the “In Vivo Dog PK (μM)” value in data set [2] was 0.8 µM. Besides, the “GI Tract stability (%)” value in data set [3] is given as 79.5%.

“propyl 2-(((R)-((((R)-1-(6-amino-9H-purin- 9-yl)propan-2-yl)oxy)methyl)((4- isopropylbenzyl)amino)phosphoryl)amino)- 2-methylpropanoate and propyl 2-(((S)-((((R)-1-(6-amino-9H-purin- 9-yl)propan-2-yl)oxy)methyl)((4- isopropylbenzyl)amino)phosphoryl)amino)- 2-methylpropanoate [Example 5A]”: the half-inhibitory concentration (IC50) in data set [1] (setting [4]) amounted to 3.1 nM; in data set [1] (setting [5]), 17 nM. Moreover, the “In Vivo Dog PK (μM)” value in data set [2] is 7.7 µM. Also, the “GI Tract stability (%)” value in data set [3] turned out to be 96.3%.

For `CCCOC(=O)C(C)(C)NP(=O)(CO[C@H](C)Cn1cnc2c(N)ncnc21)N[C@H](c1cccc(OC)c1)C(F)(F)F` (stereo partly drawn) [Example 25A, propyl 2-(((R)-((((R)-1-(6-amino-9H-purin-9-yl)propan-2-yl)oxy)methyl)(((R)-2,2,2-trifluoro-1-(3-methoxyphenyl)ethyl)amino)phosphoryl)a-mino)-2-methylpropanoate and propyl 2-(((S)-((((R)-1-(6-amino-9H-purin-9-yl)propan-2-yl)oxy)methyl)(((R)-2,2,2-trifluoro-1-(3-methoxyphenyl)ethyl)amino)phosphoryl)a-mino)-2-methylpropanoate], the IC50 is 4.6 nM in data set [1] (setting [4]) and 54 nM in data set [1] (setting [5]). Moreover, in data set [3], the “GI Tract stability (%)” value is reported as 70.3%.

`CCCOC(=O)C(C)(C)NP(=O)(CO[C@H](C)Cn1cnc2c(N)ncnc21)N[C@H](C)c1ccc(C(F)(F)F)cc1` (stereo partly drawn) [Example 12B, propyl 2-(((R)-((((R)-1-(6-amino-9H-purin-9-yl)propan-2-yl)oxy)methyl)(((R)-1-(4-(trifluoromethyl)phenyl)ethyl)amino)phos-phoryl)amino)-2-methylpropanoate and propyl 2-(((S)-((((R)-1-(6-amino-9H-purin-9-yl)propan-2-yl)oxy)methyl)(((R)-1-(4-(trifluoromethyl)phenyl)ethyl)amino)phos-phoryl)amino)-2-methylpropanoate]: the results for the IC50 in data set [1] (setting [4]) and in data set [1] (setting [5]) were 2.2 nM and 11 nM, respectively. Besides, the “GI Tract stability (%)” value in data set [3] is 99.1%.

With `CCCOC(=O)C(C)(C)NP(=O)(CO[C@H](C)Cn1cnc2c(N)ncnc21)N[C@H](C)c1ccc(OC(F)(F)F)cc1` (single isomer, unassigned) [Example 3B], the IC50 was found to be 1.8 nM in data set [1] (Human immunodeficiency virus 1, MT4-GFP cells infected with HIV-1, 10% normal human serum, read-out: Viking, IC50 (10% NHS)) and 8.6 nM in data set [1] (Human immunodeficiency virus 1, MT4-GFP cells infected with HIV-1, 50% normal human serum, read-out: Viking, IC50 (50% NHS)). The “GI Tract stability (%)” value in data set [3] was determined as 99.4%.

As for “propyl 2-(((R)-((((R)-1-(6-amino-9H-purin- 9-yl)propan-2-yl)oxy)methyl)(((R)-2,2,2- trifluoro-1-(p- tolyl)ethyl)amino)phosphoryl)amino)-2- methylpropanoate and propyl 2-(((S)-((((R)-1-(6-amino-9H-purin- 9-yl)propan-2-yl)oxy)methyl)(((R)-2,2,2- trifluoro-1-(p- tolyl)ethyl)amino)phosphoryl)amino)-2- methylpropanoate [Example 26A]”, the IC50 in data set [1] (setting [4]) worked out at 4.7 nM; in data set [1] (setting [5]), 45 nM. The “GI Tract stability (%)” value in data set [3] came to 75.3%.
